Source: patent US20150307938A1, “METHOD TO IDENTIFY A NOVEL CLASS OF IMMUNOLOGIC ADJUVANTS” (Lancell, L.L.C., priority 2011, published 2015)

Tested on: skin
Assay: Affymetrix microarray of skin, DBP-4 hr and analogs vs. untreated; gene selection by log-2 fold change, Wilcoxon, Kendall tau (Tables 8, 9)
Format: in vivo, mouse
Settings: for Kendall: Kendall tau, expression vs. outcome

CCCCOC(=O)c1ccccc1C(=O)OCCCC [DBP, dibutylphthalate]
Wilcoxon (gene #557 Il10ra NM_008348_at, DBP-4 hr vs. untreated): No
Kendall (gene #557 Il10ra NM_008348_at): Yes
Wilcoxon (gene #558 Il7 NM_008371_at, DBP-4 hr vs. untreated): No
Kendall (gene #558 Il7 NM_008371_at): Yes
Wilcoxon (gene #559 Kif3a NM_008443_at, DBP-4 hr vs. untreated): No
Kendall (gene #559 Kif3a NM_008443_at): Yes
Wilcoxon (gene #560 Lmo2 NM_008505_at, DBP-4 hr vs. untreated): No
Kendall (gene #560 Lmo2 NM_008505_at): Yes
Wilcoxon (gene #561 Mcl1 NM_008562_at, DBP-4 hr vs. untreated): No
Kendall (gene #561 Mcl1 NM_008562_at): Yes
Wilcoxon (gene #562 Meox2 NM_008584_at, DBP-4 hr vs. untreated): No
Kendall (gene #562 Meox2 NM_008584_at): Yes
Wilcoxon (gene #563 Mtf1 NM_008636_at, DBP-4 hr vs. untreated): No
Kendall (gene #563 Mtf1 NM_008636_at): Yes
Wilcoxon (gene #564 Mut NM_008650_at, DBP-4 hr vs. untreated): No
Kendall (gene #564 Mut NM_008650_at): Yes
Wilcoxon (gene #565 Ppp1r15a NM_008654_at, DBP-4 hr vs. untreated): No
Kendall (gene #565 Ppp1r15a NM_008654_at): Yes
Wilcoxon (gene #566 Ncf4 NM_008677_at, DBP-4 hr vs. untreated): No
Kendall (gene #566 Ncf4 NM_008677_at): Yes
Wilcoxon (gene #567 Nos3 NM_008713_at, DBP-4 hr vs. untreated): No
Kendall (gene #567 Nos3 NM_008713_at): Yes
Wilcoxon (gene #568 Pigf NM_008838_at, DBP-4 hr vs. untreated): No
Kendall (gene #568 Pigf NM_008838_at): Yes
Wilcoxon (gene #569 Map2k3 NM_008928_at, DBP-4 hr vs. untreated): No
Kendall (gene #569 Map2k3 NM_008928_at): Yes
Wilcoxon (gene #570 Rad50 NM_009012_at, DBP-4 hr vs. untreated): No
Kendall (gene #570 Rad50 NM_009012_at): Yes
Wilcoxon (gene #571 Ralgds NM_009058_at, DBP-4 hr vs. untreated): No
Kendall (gene #571 Ralgds NM_009058_at): Yes
Wilcoxon (gene #572 Hltf NM_009210_at, DBP-4 hr vs. untreated): No
Kendall (gene #572 Hltf NM_009210_at): Yes
Wilcoxon (gene #573 Serpina3n NM_009252_at, DBP-4 hr vs. untreated): No
Kendall (gene #573 Serpina3n NM_009252_at): Yes
Wilcoxon (gene #574 Tnfaip1 NM_009395_at, DBP-4 hr vs. untreated): No
Kendall (gene #574 Tnfaip1 NM_009395_at): Yes
Wilcoxon (gene #575 Tuba4a NM_009447_at, DBP-4 hr vs. untreated): No
Kendall (gene #575 Tuba4a NM_009447_at): Yes
Wilcoxon (gene #576 Zfp101 NM_009542_at, DBP-4 hr vs. untreated): No
Kendall (gene #576 Zfp101 NM_009542_at): Yes
Wilcoxon (gene #577 Parp2 NM_009632_at, DBP-4 hr vs. untreated): No
Kendall (gene #577 Parp2 NM_009632_at): Yes
Wilcoxon (gene #578 Aldh2 NM_009656_at, DBP-4 hr vs. untreated): No
Kendall (gene #578 Aldh2 NM_009656_at): Yes
Wilcoxon (gene #579 Cebpb NM_009883_at, DBP-4 hr vs. untreated): No
Kendall (gene #579 Cebpb NM_009883_at): Yes
Wilcoxon (gene #580 Bcar1 NM_009954_at, DBP-4 hr vs. untreated): No
Kendall (gene #580 Bcar1 NM_009954_at): Yes
Wilcoxon (gene #581 Eci1 NM_010023_at, DBP-4 hr vs. untreated): No
Kendall (gene #581 Eci1 NM_010023_at): Yes
Wilcoxon (gene #582 Ddt NM_010027_at, DBP-4 hr vs. untreated): No
Kendall (gene #582 Ddt NM_010027_at): Yes
Wilcoxon (gene #583 Egr2 NM_010118_at, DBP-4 hr vs. untreated): No
Kendall (gene #583 Egr2 NM_010118_at): Yes
Wilcoxon (gene #584 F2r NM_010169_at, DBP-4 hr vs. untreated): No
Kendall (gene #584 F2r NM_010169_at): Yes
Wilcoxon: Abhd6 (gene Abhd6, NM_025341_at, DBP-4 hr vs. untreated): No
Kendall: Abhd6 (gene Abhd6, NM_025341_at, gene expression vs. output): Yes
Wilcoxon: Acad8 (gene Acad8, NM_025862_at, DBP-4 hr vs. untreated): No
Kendall: Acad8 (gene Acad8, NM_025862_at, gene expression vs. output): Yes
Wilcoxon: Ak2 (gene Ak2, NM_016895_at, DBP-4 hr vs. untreated): No
Kendall: Ak2 (gene Ak2, NM_016895_at, gene expression vs. output): Yes
Wilcoxon: Akr1e1 (gene Akr1e1, NM_018859_at, DBP-4 hr vs. untreated): No
Kendall: Akr1e1 (gene Akr1e1, NM_018859_at, gene expression vs. output): Yes
Wilcoxon: Avpr1a (gene Avpr1a, NM_016847_at, DBP-4 hr vs. untreated): No
Kendall: Avpr1a (gene Avpr1a, NM_016847_at, gene expression vs. output): Yes
Wilcoxon: B4galt1 (gene B4galt1, NM_022305_at, DBP-4 hr vs. untreated): No
Kendall: B4galt1 (gene B4galt1, NM_022305_at, gene expression vs. output): Yes
Wilcoxon: Bphl (gene Bphl, NM_026512_at, DBP-4 hr vs. untreated): No
Kendall: Bphl (gene Bphl, NM_026512_at, gene expression vs. output): Yes
Wilcoxon: Cdkl2 (gene Cdkl2, NM_016912_at, DBP-4 hr vs. untreated): No
Kendall: Cdkl2 (gene Cdkl2, NM_016912_at, gene expression vs. output): Yes
Wilcoxon: Cep70 (gene Cep70, NM_023873_at, DBP-4 hr vs. untreated): No
Kendall: Cep70 (gene Cep70, NM_023873_at, gene expression vs. output): Yes
Wilcoxon: Cirh1a (gene Cirh1a, NM_011574_at, DBP-4 hr vs. untreated): No
Kendall: Cirh1a (gene Cirh1a, NM_011574_at, gene expression vs. output): Yes
Wilcoxon: Clec14a (gene Clec14a, NM_025809_at, DBP-4 hr vs. untreated): No
Kendall: Clec14a (gene Clec14a, NM_025809_at, gene expression vs. output): Yes
Wilcoxon: Commd4 (gene Commd4, NM_025417_at, DBP-4 hr vs. untreated): No
Kendall: Commd4 (gene Commd4, NM_025417_at, gene expression vs. output): Yes
Wilcoxon: Cr1l (gene Cr1l, NM_013499_at, DBP-4 hr vs. untreated): No
Kendall: Cr1l (gene Cr1l, NM_013499_at, gene expression vs. output): Yes
Wilcoxon: Cyth1 (gene Cyth1, NM_011180_at, DBP-4 hr vs. untreated): No
Kendall: Cyth1 (gene Cyth1, NM_011180_at, gene expression vs. output): Yes
Wilcoxon: D16Ertd472e (gene D16Ertd472e, NM_025967_at, DBP-4 hr vs. untreated): No
Kendall: D16Ertd472e (gene D16Ertd472e, NM_025967_at, gene expression vs. output): Yes
Wilcoxon: Dcxr (gene Dcxr, NM_026428_at, DBP-4 hr vs. untreated): No
Kendall: Dcxr (gene Dcxr, NM_026428_at, gene expression vs. output): Yes
Wilcoxon: Dda1 (gene Dda1, NM_025600_at, DBP-4 hr vs. untreated): No
